Measurements as given in the supplement of paper PMC8612539.
Converted amounts (≈) assume the structure as drawn.

Experiments:
Mannheimia haemolytica = experiment: minimum inhibitory concentration (MIC)
Method: (§1)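 Broth microdilution MIC (Sensititre BOPO7F bovine plate, CLSI methods) of 19 antimicrobials against field isolates of P. multocida, M. haemolytica, H. somni (deep nasopharyngeal swabs) and E. coli, Enterococcus spp. (rectal swabs) from weaned dairy heifers. Incubation 16-24 h at 35 C. MIC is the lowest concentration preventing visible growth. Values with <= or > lie at the tested range limits. Trimethoprim-sulfamethoxazole is given as the trimethoprim component of a 1:19 mixture.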

Enterococcus spp. = experiment: minimum inhibitory concentration (MIC)
Method: as §1

CN1C[C@@H]2C[C@H]1CN2c1cc2c(cc1F)c(=O)c(C(=O)O)cn2C1CC1 [Danofloxacin]
minimum inhibitory concentration [µg/mL]
Settings	Enterococcus spp.	Mannheimia haemolytica
isolate (source animal id): 2	0.25 (≈ 0.7 µM)	–
isolate (source animal id): 8	–	0.5 (≈ 1.4 µM)
isolate (source animal id): 13	–	0.5 (≈ 1.4 µM)
isolate (source animal id): 18	–	0.5 (≈ 1.4 µM)
isolate (source animal id): 21	–	0.5 (≈ 1.4 µM)
isolate (source animal id): 25	–	0.5 (≈ 1.4 µM)
isolate (source animal id): 27	–	0.25 (≈ 0.7 µM)
isolate (source animal id): 28	–	> 1
isolate (source animal id): 30	–	0.5 (≈ 1.4 µM)
isolate (source animal id): 31	–	> 1
isolate (source animal id): 32	–	0.25 (≈ 0.7 µM)
isolate (source animal id): 34	–	0.5 (≈ 1.4 µM)
isolate (source animal id): 35	> 1	–
isolate (source animal id): 36	–	0.5 (≈ 1.4 µM)
isolate (source animal id): 37	–	0.5 (≈ 1.4 µM)
isolate (source animal id): 40	–	0.5 (≈ 1.4 µM)
isolate (source animal id): 41	–	0.5 (≈ 1.4 µM)
isolate (source animal id): 42	1 (≈ 2.8 µM)	–
isolate (source animal id): 43	–	0.5 (≈ 1.4 µM)
isolate (source animal id): 44	1 (≈ 2.8 µM)	–
isolate (source animal id): 46	–	0.5 (≈ 1.4 µM)
isolate (source animal id): 49	–	0.5 (≈ 1.4 µM)
isolate (source animal id): 50	–	0.5 (≈ 1.4 µM)
isolate (source animal id): 51	–	0.5 (≈ 1.4 µM)
isolate (source animal id): 52	–	0.5 (≈ 1.4 µM)
isolate (source animal id): 53	–	0.5 (≈ 1.4 µM)
isolate (source animal id): 55	–	0.5 (≈ 1.4 µM)
isolate (source animal id): 56	–	0.5 (≈ 1.4 µM)
isolate (source animal id): 57	–	> 1
isolate (source animal id): 79	1 (≈ 2.8 µM)	–
isolate (source animal id): 88	0.25 (≈ 0.7 µM)	–
isolate (source animal id): 91	0.25 (≈ 0.7 µM)	–
isolate (source animal id): 92	1 (≈ 2.8 µM)	–
isolate (source animal id): 100	–	> 1
isolate (source animal id): 103	–	0.5 (≈ 1.4 µM)
isolate (source animal id): 107	–	0.5 (≈ 1.4 µM)
isolate (source animal id): 108	–	0.5 (≈ 1.4 µM)
isolate (source animal id): 111	0.25 (≈ 0.7 µM)	–
isolate (source animal id): 112	–	0.5 (≈ 1.4 µM)
isolate (source animal id): 113	–	> 1
isolate (source animal id): 121	–	0.5 (≈ 1.4 µM)
isolate (source animal id): 122	1 (≈ 2.8 µM)	0.5 (≈ 1.4 µM)
isolate (source animal id): 123	0.5 (≈ 1.4 µM)	> 1
isolate (source animal id): 126	–	> 1
isolate (source animal id): 133	1 (≈ 2.8 µM)	> 1
isolate (source animal id): 135	–	> 1
isolate (source animal id): 138	–	> 1
isolate (source animal id): 141	–	> 1
isolate (source animal id): 142	–	> 1
isolate (source animal id): 145	–	> 1
isolate (source animal id): 149	–	≤ 0.12
isolate (source animal id): 151	–	≤ 0.12
isolate (source animal id): 152	–	> 1
isolate (source animal id): 154	–	≤ 0.12
isolate (source animal id): 158	1 (≈ 2.8 µM)	–
isolate (source animal id): 159	–	> 1
isolate (source animal id): 162	–	> 1
isolate (source animal id): 168	0.5 (≈ 1.4 µM)	–
isolate (source animal id): 169	0.5 (≈ 1.4 µM)	–
isolate (source animal id): 170	–	≤ 0.12
isolate (source animal id): 171	0.5 (≈ 1.4 µM)	≤ 0.12
isolate (source animal id): 172	–	≤ 0.12
isolate (source animal id): 173	–	≤ 0.12
isolate (source animal id): 175	> 1	–
isolate (source animal id): 177	> 1	–
isolate (source animal id): 179	–	≤ 0.12
isolate (source animal id): 180	–	≤ 0.12
isolate (source animal id): 181	0.5 (≈ 1.4 µM)	–
isolate (source animal id): 182	1 (≈ 2.8 µM)	–
isolate (source animal id): 183	1 (≈ 2.8 µM)	≤ 0.12
isolate (source animal id): 186	–	≤ 0.12
isolate (source animal id): 187	0.5 (≈ 1.4 µM)	≤ 0.12
isolate (source animal id): 188	–	≤ 0.12
isolate (source animal id): 190	0.5 (≈ 1.4 µM)	≤ 0.12
isolate (source animal id): 191	–	≤ 0.12
isolate (source animal id): 192	–	≤ 0.12
isolate (source animal id): 194	0.5 (≈ 1.4 µM)	–
isolate (source animal id): 195	0.5 (≈ 1.4 µM)	–
isolate (source animal id): 197	0.5 (≈ 1.4 µM)	–
isolate (source animal id): 201	–	≤ 0.12
isolate (source animal id): 202	–	≤ 0.12
isolate (source animal id): 209	–	≤ 0.12
isolate (source animal id): 211	1 (≈ 2.8 µM)	≤ 0.12
isolate (source animal id): 214	> 1	–
isolate (source animal id): 220	–	≤ 0.12
isolate (source animal id): 221	–	≤ 0.12
isolate (source animal id): 222	0.5 (≈ 1.4 µM)	–
isolate (source animal id): 223	0.5 (≈ 1.4 µM)	≤ 0.12
isolate (source animal id): 228	0.5 (≈ 1.4 µM)	–
isolate (source animal id): 230	0.5 (≈ 1.4 µM)	–
isolate (source animal id): 233	–	> 1
isolate (source animal id): 235	0.5 (≈ 1.4 µM)	–
isolate (source animal id): 236	> 1	–
isolate (source animal id): 237	–	> 1
isolate (source animal id): 239	> 1	–
isolate (source animal id): 241	0.5 (≈ 1.4 µM)	> 1
isolate (source animal id): 244	0.5 (≈ 1.4 µM)	–
isolate (source animal id): 246	0.5 (≈ 1.4 µM)	–
isolate (source animal id): 247	0.5 (≈ 1.4 µM)	–
isolate (source animal id): 250	0.25 (≈ 0.7 µM)	–
isolate (source animal id): 252	> 1	0.25 (≈ 0.7 µM)
isolate (source animal id): 253	–	0.5 (≈ 1.4 µM)
isolate (source animal id): 259	–	> 1
isolate (source animal id): 260	–	0.5 (≈ 1.4 µM)
isolate (source animal id): 262	–	> 1
isolate (source animal id): 268	0.25 (≈ 0.7 µM)	–
isolate (source animal id): 282	1 (≈ 2.8 µM)	> 1
isolate (source animal id): 285	1 (≈ 2.8 µM)	–
isolate (source animal id): 287	–	0.5 (≈ 1.4 µM)
isolate (source animal id): 288	–	≤ 0.12
isolate (source animal id): 289	0.5 (≈ 1.4 µM)	–
isolate (source animal id): 290	0.5 (≈ 1.4 µM)	–
isolate (source animal id): 291	–	≤ 0.12
isolate (source animal id): 293	–	0.5 (≈ 1.4 µM)
isolate (source animal id): 296	0.5 (≈ 1.4 µM)	–
isolate (source animal id): 298	0.5 (≈ 1.4 µM)	0.5 (≈ 1.4 µM)
isolate (source animal id): 299	–	0.5 (≈ 1.4 µM)
isolate (source animal id): 300	–	≤ 0.12
isolate (source animal id): 301	0.5 (≈ 1.4 µM)	–
isolate (source animal id): 302	–	0.5 (≈ 1.4 µM)
isolate (source animal id): 304	–	0.5 (≈ 1.4 µM)
isolate (source animal id): 306	–	≤ 0.12
isolate (source animal id): 308	–	≤ 0.12
isolate (source animal id): 309	–	≤ 0.12
isolate (source animal id): 310	> 1	–
isolate (source animal id): 313	–	0.5 (≈ 1.4 µM)
isolate (source animal id): 318	–	0.25 (≈ 0.7 µM)
isolate (source animal id): 320	0.5 (≈ 1.4 µM)	≤ 0.12
isolate (source animal id): 321	–	0.5 (≈ 1.4 µM)
isolate (source animal id): 323	–	0.5 (≈ 1.4 µM)
isolate (source animal id): 324	–	0.5 (≈ 1.4 µM)
isolate (source animal id): 326	–	0.5 (≈ 1.4 µM)
isolate (source animal id): 328	–	0.5 (≈ 1.4 µM)
isolate (source animal id): 329	–	0.5 (≈ 1.4 µM)
isolate (source animal id): 331	1 (≈ 2.8 µM)	–
isolate (source animal id): 333	0.5 (≈ 1.4 µM)	0.5 (≈ 1.4 µM)
isolate (source animal id): 335	–	0.5 (≈ 1.4 µM)
isolate (source animal id): 338	–	0.5 (≈ 1.4 µM)
isolate (source animal id): 341	> 1	–
